Assay results as given in US20250108070A1, “METHOD FOR REPROGRAMMING CD8+ T CELLS TO ENHANCE THEIR THERAPEUTIC POTENTIAL AND APPLICATIONS THEREOF” (INSTITUT PASTEUR, priority 2022, published 2025).

Key:
human CD8+ T cells [1] = assay: Screening of GSK3 inhibitors: cytokine polyfunctionality (IFN-γ+TNF-α+) of CD8+ T cells after anti-CD3/anti-CD28 stimulation; format: cell-based; conditions: FIG. 12A, in words
Description: (§1) FIG. 12. Screening molecules for reprogramming human CD8^+ T cells Total CD8^+ T cells were purified and treated for 12 hs with titrated doses of GSK3 inhibitors or DMSO vehicle control. After drug washout, cells were stimulated for 48 hs with plate-bound anti-CD3/anti-CD28 antibodies (at 1 mg/mL), followed by flow cytometry analyses. A. Upon stimulation, intracellular cytokine and phospho-protein staining was performed, the latter for the detection of phospho-S6 and phospho-AKT proteins (indicative of activation of mTORC1 and mTORC2 pathways, respectively). The fold change in the frequency of IFN-γ^+TNF-α^+ and pS6^+pAKT^+ cells induced by the treatment with each GSK3 inhibitor, relative to DMSO control, was analyzed. […] B. Fold change in the expression of the indicated markers and memory phenotypes induced by anti-CD3/anti-CD28 antibody stimulation relative to unstimulated cells (at least 3 donors per condition). TCM: T central memory; TEM: T effector memory; TTM: T transitional memory; TTE: T terminal effector; TSCM: T stem cell memory.
(§2) For reprogramming of CD8^+ T cells followed by polyclonal stimulation, cells were isolated by negative magnetic bead sorting (Stemcell Technologies). For reprogramming of CD8^+ T cells followed by antigen-specific stimulation, PBMC and magnetically separated CD8^+ T cells and non-CD8^+ T cells were used (REAlease® CD8 MicroBead Kit; Miltenyi Biotech). Then, CD8^+ T cells were treated with a GSK3 inhibitor (6-Bromoindirubin-3′-oxime; BIO; Sigma-Aldrich), at 3 μM, or an equivalent concentration of dimethyl sulfoxide (DMSO) vehicle control, in complete medium, for 12 hs at 37° C., 5% CO2. Non-CD8 cells were left resting during this time in complete medium. CD8^+ T cells were washed with complete medium and stimulated with the peptide pool in presence of non-CD8 T cells.
(§3) In some experiments, cells were culture in RPMI medium without glucose (MP Biomedicals). CD8^+ T cell proliferation was evaluated by CFSE dilution (at 1 μM, Thermo Fisher Scientific). In additional experiments, reprogrammed CD8^+ T cells were stimulated with IL-7 or IL-15 (both at 10 ng/mL; R&D) and cultured for 6 days. In all the cases, cells were cultured at a density of 2×10^6 cells/mL.
(§4) After cultures, cells were stained with the LIVE/DEAD Fixable Aqua Dead Cell Stain kit (Thermo Fisher Scientific), with anti-CD3 Alexa Fluor 700 or APC efluor 780 and anti-CD8 PE Texas Red antibodies, accordingly. […] In some experiments, cells were stained with APC-conjugated dextramers (Immudex), incubated for 15 minutes at room temperature. Additional surface staining panels included anti-HLA-DR Superbright 780, anti-CD38 Superbright 600, anti-PD-1 BV421, anti-LAG-3 APC efluor 780, anti-TIM3 PE Cy7, and anti-TIGIT BV786 antibodies, or anti-CD122 PE and anti-CD215 FITC antibodies. The BD Transcription Factor Buffer Set kit (BD Biosciences) was used for cell fixation and permeabilization. […] Cell acquisition was performed using LSR II or ARIA III flow cytometers (both from BD Biosciences), and data were analyzed with FlowJo v.10 software (BD Biosciences).
(§5) The inventors explored GSK3 inhibitors to expand the array of molecules that could be used for CD8^+ T cell reprogramming. They implemented a screening approach that combined the evaluation of cytokine polyfunctionality of CD8^+ T cells (IFN-γ+TNFα+) vs the activation of mTORC1 and mTORC2 pathways (pS6+pAKT+) upon treatment with the GSK3 inhibitors and subsequent polyclonal stimulation.

[2] = system: mTORC1 and mTORC2 pathways; assay: Screening of GSK3 inhibitors: phospho-S6 / phospho-AKT staining (activation of mTORC1 and mTORC2 pathways); format: cell-based, human; conditions: FIG. 12A, in words
Description: as §1, §2, §3, §4, §5

human CD8+ T cells [3] = assay: Screening of GSK3 inhibitors: markers and memory phenotypes by flow cytometry; format: cell-based; conditions: FIG. 12B, in words
Description: as §1, §2, §3, §4

O=C1Nc2cc(Br)ccc2/C1=C1/Nc2ccccc2/C1=N\O [BIO, 6-bromoindirubin-3′-oxime]
IFN-γ+TNF-α+ cells (polyfunctionality) relative to vehicle control (human CD8+ T cells [1]): promoted
frequency of pS6+pAKT+ cells / activation of mTORC pathway [2]: lower frequency
CD127+ T-bet− phenotype (human CD8+ T cells [3]): preserved
acquisition of T-bet, HLA-DR and CD38, PD-1 and LAG-3 (human CD8+ T cells [3]): restrained
phenotype / profile promoted in CD8+ T cells (human CD8+ T cells [3]): promoted a less-differentiated phenotype
